# From patent publication US20230150960A1, “COMPOSITIONS AND METHODS OF USING CYANINE DYES TO TARGET CANCER AND MITOCHONDRIA” (Thomas Jefferson University, priority 2020, published 2023)
# “Also recorded” adds a separate entry of the source.
# Key:
# MIA-PaCa2 cancer cells = assay: Combination of JAC-B2 or JAC-R2 with another drug, cell survival by Pico Green, BLISS/HSA plot analyses; assay type: cell-based
# Method: (§1) We analyzed cell survival using Pico Green and determined the combinational effects through BLISS/HSA plot analyses.
# MIA-PaCa2 pancreatic cancer cells were purchased from the American Type Culture Collection (ATCC, Manassas, VA, USA) and grown in normal culture media (DMEM media, 10% FBS, 1% L-glutamine, 1% Penicillin-Streptomycin) at normal conditions (37° C., 5% CO2). Cells were trypsinized and plated at 1 thousand cells per well and in 96-well plates. […] Cell viability was assessed using pico-green dsDNA measurement and IC50S were calculated using GraphPad® (GraphPad Software, San Diego, CA, USA) by employing normalized nonlinear regression models. A summary of the combined efficacy of a compound of Formula I and an additional therapeutic agent is show in Table 2.
# HT29 cancer cells = assay: Combination of JAC-B2 with another drug, cell survival by Pico Green, BLISS/HSA plot analyses; assay type: cell-based; conditions: combined with Cobimetinib, 5 days, FIG. 7O
# Source text: as §1
# ASPC1 cancer cells = assay: as above; assay type: cell-based; conditions: combined with PDDX04, 5 days, FIG. 7P
# Source text: as §1
# [1] = Solubility of BSA-containing formulations (post vortexing, 30 min and overnight at 18° C.); assay type: physicochemical; conditions: BSA-containing formulation, aqueous with cosolvent or surfactant or cyclodextrin, compound 2 mg/mL; for solubility at 30 min / solubility: 18 °C; for solubility at 30 min: after 30 minutes incubation at 18° C.; for solubility: overnight incubation at 18° C.; for solubility at 30 s: post vortexing
# Method: (§2) Vortexing was conducted using a Denville Vortexer 59 (Denville Scientific Inc.), at maximum speed for 30 seconds. As used herein, the term overnight refers to a period lasting at least about 12-24 hours.
# [2] = Solubility of glycerol-containing formulations (post vortexing, 30 min and overnight at 18° C.); assay type: physicochemical; conditions: glycerol-containing formulation, compound 2 mg/mL; for solubility at 30 min / solubility: 18 °C; for solubility at 30 min: after 30 minutes incubation at 18° C.; for solubility: overnight incubation at 18° C.; for solubility at 30 s: post vortexing
# Method: as §2, with “Tables 3A, 3B, and 3C describe solubility experiments conducted with the indicated compounds under the listed conditions. Vortexing” for “Vortexing”
# [3] = combined with Azacitidine, 5 days, MIA-PaCa2, FIG. 7J (JAC-B2), FIG. 7L (JAC-R2)
# [4] = combined with Decitabine, 5 days, MIA-PaCa2, FIG. 7I (JAC-B2), FIG. 7K (JAC-R2)
# [5] = combined with Paclitaxel, 5 days, FIG. 7F (JAC-B2), FIG. 7M (JAC-R2)
smiles,measurement,setting,value
"CCN1/C(=C/C=C/C=C/c2sc3ccccc3[n+]2CC)Sc2ccccc21 [JAC-B2, Dithiazanine Iodide]",Effect of combination,"MIA-PaCa2 cancer cells; combined with 5-Fluorouracil, 5 days, FIG. 7N",Synergistic
same,Effect of combination,"MIA-PaCa2 cancer cells; combined with Abemaciclib, 5 days, MIA-PaCa2, FIG. 7H",Synergistic
same,Effect of combination,"MIA-PaCa2 cancer cells; combined with Adavosertib, 5 days, MIA-PaCa2, FIG. 7R",Synergistic
same,Effect of combination,MIA-PaCa2 cancer cells; [3],Synergistic
same,Effect of combination,"MIA-PaCa2 cancer cells; combined with Colchicine, 5 days, MIA-PaCa2, FIG. 7Q",Synergistic
same,Effect of combination,MIA-PaCa2 cancer cells; [4],Synergistic
same,Effect of combination,"MIA-PaCa2 cancer cells; combined with Everolimus, 5 days, MIA-PaCa2, FIG. 7E",Additive
same,Effect of combination,"MIA-PaCa2 cancer cells; combined with Gemcitabine, 5 days, MIA-PaCa2, FIG. 7A",antagonistic response; also recorded: Antagonistic/Additive
same,Effect of combination,"MIA-PaCa2 cancer cells; combined with Hydralazine, no figure",Antagonistic/Additive
same,Effect of combination,"MIA-PaCa2 cancer cells; combined with Irinotecan, 5 days, MIA-PaCa2, FIG. 7C",Additive
same,Effect of combination,"MIA-PaCa2 cancer cells; combined with Metformin, no figure",Additive
same,Effect of combination,"MIA-PaCa2 cancer cells; combined with Methotrexate, 5 days, MIA-PaCa2, FIG. 7B",Additive
same,Effect of combination,"MIA-PaCa2 cancer cells; combined with Olaparib, 5 days, MIA-PaCa2, FIG. 7D",antagonistic response; also recorded: Antagonistic/Additive
same,Effect of combination,"MIA-PaCa2 cancer cells; combined with Oxaliplatin, 5 days, MIA-PaCa2, FIG. 7G",Synergistic
same,Effect of combination,MIA-PaCa2 cancer cells; [5],Synergistic
same,Effect of combination,"MIA-PaCa2 cancer cells; combined with VE-821, 5 days, MIA-PaCa2, FIG. 7S",Synergistic
same,Effect of combination,HT29 cancer cells,Synergistic
same,Effect of combination,ASPC1 cancer cells,Synergistic
"CCN1/C(=C/C(C)=C/c2sc3ccccc3[n+]2CC)Sc2ccccc21 [JAC-B2.5, 3,3′-Diethyl-9-methylthiacarbocyanine iodide]",solubility at 30 min,"[1]; BSA 40 mg/mL, read-out: Solubility of BSA-containing formulations after 30 min incubation at 18° C., 40 mg/mL",< 2000 µg/mL
same,solubility,"[1]; BSA 40 mg/mL, read-out: Solubility of BSA-containing formulations after overnight incubation at 18° C., 40 mg/mL",< 2000 µg/mL
same,solubility at 30 min,"[1]; BSA 60 mg/mL, read-out: Solubility of BSA-containing formulations after 30 min incubation at 18° C., 60 mg/mL",< 2000 µg/mL
same,solubility,"[1]; BSA 60 mg/mL, read-out: Solubility of BSA-containing formulations after overnight incubation at 18° C., 60 mg/mL",< 2000 µg/mL
same,solubility at 30 min,"[1]; BSA 80 mg/mL, read-out: Solubility of BSA-containing formulations after 30 min incubation at 18° C., 80 mg/mL",< 2000 µg/mL
same,solubility,"[1]; BSA 80 mg/mL, read-out: Solubility of BSA-containing formulations after overnight incubation at 18° C., 80 mg/mL",< 2000 µg/mL
same,solubility at 30 min,"[1]; BSA 100 mg/mL, read-out: Solubility of BSA-containing formulations after 30 min incubation at 18° C., 100 mg/mL",< 2000 µg/mL
same,solubility,"[1]; BSA 100 mg/mL, read-out: Solubility of BSA-containing formulations after overnight incubation at 18° C., 100 mg/mL",< 2000 µg/mL
same,solubility at 30 s,"[1]; BSA 40 mg/mL, read-out: Solubility of BSA-containing formulations post vortexing, 40 mg/mL",< 2000 µg/mL
same,solubility at 30 s,"[1]; BSA 60 mg/mL, read-out: Solubility of BSA-containing formulations post vortexing, 60 mg/mL",< 2000 µg/mL
same,solubility at 30 s,"[1]; BSA 80 mg/mL, read-out: Solubility of BSA-containing formulations post vortexing, 80 mg/mL",< 2000 µg/mL
same,solubility at 30 s,"[1]; BSA 100 mg/mL, read-out: Solubility of BSA-containing formulations post vortexing, 100 mg/mL",< 2000 µg/mL
same,solubility at 30 min,"[2]; aqueous with cosolvent or surfactant or cyclodextrin, 10% glycerol, read-out: Solubility of glycerol-containing formulations after 30 min incubation at 18° C., 10%",< 2000 µg/mL
same,solubility,"[2]; aqueous with cosolvent or surfactant or cyclodextrin, 10% glycerol, read-out: Solubility of glycerol-containing formulations after overnight incubation at 18° C., 10%",< 2000 µg/mL
same,solubility at 30 min,"[2]; aqueous with cosolvent or surfactant or cyclodextrin, 20% glycerol, read-out: Solubility of glycerol-containing formulations after 30 min incubation at 18° C., 20%",< 2000 µg/mL
same,solubility,"[2]; aqueous with cosolvent or surfactant or cyclodextrin, 20% glycerol, read-out: Solubility of glycerol-containing formulations after overnight incubation at 18° C., 20%",< 2000 µg/mL
same,solubility at 30 min,"[2]; aqueous with cosolvent or surfactant or cyclodextrin, 30% glycerol, read-out: Solubility of glycerol-containing formulations after 30 min incubation at 18° C., 30%",< 2000 µg/mL
same,solubility,"[2]; aqueous with cosolvent or surfactant or cyclodextrin, 30% glycerol, read-out: Solubility of glycerol-containing formulations after overnight incubation at 18° C., 30%",< 2000 µg/mL
same,solubility at 30 min,"[2]; aqueous with cosolvent or surfactant or cyclodextrin, 40% glycerol, read-out: Solubility of glycerol-containing formulations after 30 min incubation at 18° C., 40%",< 2000 µg/mL
same,solubility,"[2]; aqueous with cosolvent or surfactant or cyclodextrin, 40% glycerol, read-out: Solubility of glycerol-containing formulations after overnight incubation at 18° C., 40%",< 2000 µg/mL
same,solubility at 30 min,"[2]; aqueous with cosolvent or surfactant or cyclodextrin, 50% glycerol, read-out: Solubility of glycerol-containing formulations after 30 min incubation at 18° C., 50%",< 2000 µg/mL
same,solubility,"[2]; aqueous with cosolvent or surfactant or cyclodextrin, 50% glycerol, read-out: Solubility of glycerol-containing formulations after overnight incubation at 18° C., 50%",< 2000 µg/mL
same,solubility at 30 min,"[2]; 0% glycerol, read-out: Solubility of glycerol-containing formulations after 30 min incubation at 18° C., 0%",< 2000 µg/mL
same,solubility,"[2]; 0% glycerol, read-out: Solubility of glycerol-containing formulations after overnight incubation at 18° C., 0%",< 2000 µg/mL
same,solubility at 30 s,"[2]; aqueous with cosolvent or surfactant or cyclodextrin, 10% glycerol, read-out: Solubility of glycerol-containing formulations post vortexing, 10%",< 2000 µg/mL
same,solubility at 30 s,"[2]; aqueous with cosolvent or surfactant or cyclodextrin, 20% glycerol, read-out: Solubility of glycerol-containing formulations post vortexing, 20%",< 2000 µg/mL
same,solubility at 30 s,"[2]; aqueous with cosolvent or surfactant or cyclodextrin, 30% glycerol, read-out: Solubility of glycerol-containing formulations post vortexing, 30%",< 2000 µg/mL
same,solubility at 30 s,"[2]; aqueous with cosolvent or surfactant or cyclodextrin, 40% glycerol, read-out: Solubility of glycerol-containing formulations post vortexing, 40%",< 2000 µg/mL
same,solubility at 30 s,"[2]; aqueous with cosolvent or surfactant or cyclodextrin, 50% glycerol, read-out: Solubility of glycerol-containing formulations post vortexing, 50%",< 2000 µg/mL
same,solubility at 30 s,"[2]; 0% glycerol, read-out: Solubility of glycerol-containing formulations post vortexing, 0%",< 2000 µg/mL
"CCN1/C(=C/C=C/C=C/c2oc3ccccc3[n+]2CC)Oc2ccccc21 [JAC-R2, 3′,3′-Diethyloxadicarbocyanine iodide]",Effect of combination,MIA-PaCa2 cancer cells; [3],Synergistic
same,Effect of combination,MIA-PaCa2 cancer cells; [4],Synergistic
same,Effect of combination,MIA-PaCa2 cancer cells; [5],Synergistic
